A short description of data set [1]: Singlet oxygen quenching (RNO bleaching at 440 nm, methylene blue sensitizer, UV A). The note with it: for Singlet oxygen scavenging behaviour: FIG. 3; for IC50% (μg/ml), singlet oxygen quenching ability: RNO bleaching at 440 nm, 20 min UV A. The class given is biochemical. As to the method: A solution of N,N-dimethyl-p-nitrosoaniline (RNO) and histidine and a known sensitizer (e.g. methylene blue) is exposed to UV A. Singlet oxygens generated under UV A induce a bleaching of RNO which can be measured spectrophotometrically at 440 nm. The efficiency of test products in terms of singlet oxygen scavenging is measured at 440 nm for various concentrations.
All measurements were performed at room temperature (24 C) with a Beckman Coulter DU-640 spectrophotometer at a scan speed of 120 nm/min with a spectral range from 300 to 700 nm.
150, Sigma-Aldrich • RNO (19 mg) dissolved in 50 ml of Buffer solution subsequent dilution by factor 25 in de-ionized water. • L-Histidine Solution (40 mM) • Mol. Wt. […] 320, Sigma-Aldrich • 5 mg are dissolved in distilled water (100 ml) subsequent dilution at 6.4 ml in 25 ml of de-ionized water. b) Antioxidant Solutions: • Ascorbic acid (0.5 mM) • Mol. Wt.
The stock solutions were added in an orderly manner with quantities according to the table below as to obtain a final total volume of 4.5 ml for each preparation. First, the RNO buffered solution was taken, followed by addition of L-Histidine and the sensitizer Methylene Blue. Then, the antioxidant solution was added and topped off to 4.5 ml total volume with buffer solution. This preparation was exposed to UV A radiation (˜35 W/m^2) for 20 min to generate singlet oxygens. The light absorption spectra were then recorded and the optical density measured at 440 nm (corresponding to RNO). The inverse of the light absorbances at 440 nm is then plotted as a function of the concentration in antioxidant.

Data set [2] can be described thus: Photostabilization of natural Tocopherols in ethanolic solution under sun simulator. The class given is physicochemical. As to conditions: stabilizer 0.05%. As to the method:
(§1) In Solution: Solutions in ethanol are prepared at respective concentrations of photosensitive materials and photostabilizer (typically 1:1 to 1:5 in weight %). Solutions are exposed to a sun simulator (754 W/m^2, 2 MED/h,) for various durations and light absorption spectra recorded for each sample at given times. The amount of photosensitive materials remaining in solution is calculated from the ratio of their maximal absorption band (λmax), before and after irradiation.
(§2) Amount of energy: 10 mJoules/Cm^2=1 MED
Photostabilization Results of Natural Tocopherols in Ethanolic Solution

A short description of data set [3]: Color change of Menthyl anthranilate in solution under sun simulator. Type of data set: physicochemical. As to conditions: menthyl anthranilate:stabilizer 1:5, FIG. 2. As to the method: as §1
Color Change of Menthyl Anthranilate Under Sun Simulator With and Without Diethylhexyl Syringylidene Malonate in Solution

Data set [4] can be described thus: Photostabilization and color change of Vanillin in ethanolic solution under sun simulator. Type of data set: physicochemical. As to conditions: for Color change of Vanillin in solution (new light absorption band around 390 nm, yellow color): with and without stabilizer, FIG. 1; for Relative absorption of Vanillin at 281 nm (%): ethanolic solution. As to the method:
(§3) In Solution: Solutions in ethanol are prepared at respective concentrations of photosensitive materials and photostabilizer (typically 1:1 to 1:5 in weight %). […] The amount of photosensitive materials remaining in solution is calculated from the ratio of their maximal absorption band (λmax), before and after irradiation.
as §2
Photostabilization Results of Vanillin in Ethanolic Solution
Color Change of Vanillin in Solution Under Sun Simulator With and Without Diethylhexyl Syringylidene Malorate in Solution
Photostabilization Results of Vanillin in Ethanolic Solution with isoamyl-alpha-acetyl-3,5-dimethoxy-4-hydroxy cinnamate

Data set [5] is described as follows: Photostability of β carotene in lotion under sun simulator. As to conditions: stabilizer 0.2%, β carotene 0.02%.
Data set [6] in a line: Photostability of Guaiazulene in a shampoo formulation under sun simulator. The class given is physicochemical. As to conditions: stabilizer 0.1% in the shampoo. As to the method: In Formulation: Samples are prepared as ultrathin films between two quartz plates as to obtain a minimum of 90% light transmission over the entire spectrum range of non absorbing chromophores. For example, ingredients which absorb only in the UV will be tested in formulation to obtain a minimum of 90% light transmission over the visible range. Samples are then irradiated under sun simulator (754 W/m^2, typically 2 MED/h) for given times and light absorption spectra recorded at each time. The remaining percentage of photosensitive compounds is calculated from the light absorption maximum (λmax) of the corresponding peak in the absorption spectrum.
as §2
Formulation Used for the Study Described in Example-5
Procedure: Combine A and heat to 70–75° C., except for U-care JR-400. Disperse U-care JR-400 in A under agitation. Add ingredients of phase B one by one at 70° C. Add phase C at 40° C. Premix Phase D and add to batch at 40° C. At 35° C. add phase E. Adjust pH (˜6.5) and viscosity with phase F.

Data set [7] in a line: Photostabilization of Guaiazulene in ethanolic solution under sun simulator. The class given is physicochemical. As to conditions: for Relative absorption of Guaiazulene at 600 nm (%): ethanolic solution, sun simulator. As to the method:
as §3, §2
Photostabilization Results of Guaiazulene in Ethanolic Solution

Data set [8] is described as follows: Photostability of β carotene in lotion at room temperature, visible light, one month. As to conditions: room temperature storage.

The values that follow come from patent US7150876B2, “Methods for stabilizing ingredients within cosmetics, personal care and household products” (Merck Patent GmbH, priority 2004, dated 2006).

For `O=C1O[C@H]([C@@H](O)CO)C(O)=C1O` [Ascorbic acid, reference compound], in data set [1], the “Singlet oxygen scavenging behaviour” value is recorded as “pro-oxidant” and the “IC50% (μg/ml), singlet oxygen quenching ability” value (shortened to “IC50% (μg/ml)”) was “Pro-oxidant”.

`CCCCC(CC)COC(=O)C(=Cc1cc(OC)c(O)c(OC)c1)C(=O)OCC(CC)CCCC` (stereo not drawn) [Diethylhexyl syringylidene malonate, Di-2-ethylhexyl 3,5 dimethoxy 4 hydroxy benzylidene malonate]: the “Effect of stabilizer on photostability of Tocopherols in solution” value in data set [2] is “clear improvement in the photostability of Tocopherols”. For the same molecule, the “Color change of Menthyl anthranilate (new light absorption band around 390 nm, yellow color)” value in data set [3] was “prevents any alteration/degradation of the fragrance”. For the same molecule, in data set [1], the “Singlet oxygen scavenging behaviour” value is listed as “efficient singlet oxygen scavengers, better than Vitamin E” and the “IC50% (μg/ml)” value was 80 µg/mL. The “Color change of Vanillin in solution (new light absorption band around 390 nm, yellow color)” value in data set [4] is “does not appear”. Also, the “Effect of stabilizer on photostability of β carotene in lotion” value in data set [5] is listed as “clear improvement in the photostability of β carotene”. For the same molecule, in data set [6], the “Effect of stabilizer on photostability of Guaiazulene in shampoo” value is recorded as “clear improvement in the photostability of Guaiazulene”.

Regarding `COc1cc(C=C(C(C)=O)C(=O)OCCC(C)C)cc(OC)c1O` [Eusolex ASA ™, Isoamyl alpha acetyl-3,5 dimethoxy 4 hydroxy benzylidene malonate], in data set [1], the “Efficiency as an antioxidant (ranking)” value is listed as “best efficiency as an antioxidant”; the “Singlet oxygen scavenging behaviour” value was “efficient singlet oxygen scavengers, better than Vitamin E”; the “IC50% (μg/ml)” value was found to be 61 µg/mL.

As to `CCOS(=O)(=O)[O-].CCOS(=O)(=O)[O-].CC[N+](C)(C)CCCNC(=O)C(=Cc1cc(OC)c(O)c(OC)c1)C(=O)NCCC[N+](C)(C)CC` [Eusolex HP ™, Bis-N-[3′-(N′,N′-Dimethylethylammonium)propyl]-3,5-dimethoxy-4-hydroxy benzylidene malonamide bis ethyl sulfate], in data set [1], the “Singlet oxygen scavenging behaviour” value is recorded as “efficient singlet oxygen scavengers, better than Vitamin E” and the “IC50% (μg/ml)” value came out at 104 µg/mL.

For `Cc1ccc(C(C)C)cc2c(C)ccc1-2` [Guaiazulene], the “Relative absorption of Guaiazulene at 600 nm (%)” value in data set [7] (0 MED) is 100%; in data set [7] (2 MED) it was 83%; in data set [7] (5 MED), 43%; in data set [7] (10 MED), 6%. Also, in data set [7] (total energy of 100 mJ/cm^2), the “Guaiazulene lost when exposed to solar simulator” value is on record as ~90%.

In the case of `CC1CCC(C(C)C)C(OC(=O)c2ccccc2N)C1` (stereo not drawn) [Menthyl anthranilate], in data set [3], the “Color change of Menthyl anthranilate (new light absorption band around 390 nm, yellow color)” value was “a new light absorption band for menthyl antranillate appears around 390 nm”.

Take `Cc1c(C)c2c(c(C)c1O)CCC(C)(C(=O)O)O2` (stereo not drawn) [Trolox C, S-hydroxy-tetramethylchroman carboxylic acid, reference compound]: in data set [1], the “IC50% (μg/ml)” value amounted to 88 µg/mL.

Turning to `COc1cc(C=O)ccc1O` [Vanillin], the “Relative absorption of Vanillin at 281 nm (%)” value was 100% in data set [4] (0 MED), 45% in data set [4] (2 MED), 40% in data set [4] (5 MED) and 36% in data set [4] (10 MED). For the same molecule, in data set [4], the “Color change of Vanillin in solution (new light absorption band around 390 nm, yellow color)” value is given as “a new light absorption band appears around 390 nm”.

In the case of `CC1=C(/C=C/C(C)=C/C=C/C(C)=C/C=C/C=C(C)/C=C/C=C(C)/C=C/C2=C(C)CCCC2(C)C)C(C)(C)CCC1` [β-carotene], the “Stability of β-carotene in ambient light” value in data set [8] is “degrades in ambient light at room temperature storage”.
